ChEMBL document CHEMBL1156881, “Inhibition of monoamine oxidase by 8-benzyloxycaffeine analogues” (Bioorg Med Chem, 2010)
Calls of active or inactive are those of the source. The calls are words filed in the database; no cut-off is given here.

Legend:
[1] = Inhibition of MAOB in baboon liver mitochondria assessed as MMDP+ production by spectrophotometry; design: species or system Papio hamadryas
[2] = target: T1, Amine oxidase [flavin-containing] A (Homo sapiens, UniProt P21397); assay: Inhibition of human recombinant MAOA assessed as 4-hydroxyquinoline formation by fluorimetry
T1 sequence (P21397 whole entry): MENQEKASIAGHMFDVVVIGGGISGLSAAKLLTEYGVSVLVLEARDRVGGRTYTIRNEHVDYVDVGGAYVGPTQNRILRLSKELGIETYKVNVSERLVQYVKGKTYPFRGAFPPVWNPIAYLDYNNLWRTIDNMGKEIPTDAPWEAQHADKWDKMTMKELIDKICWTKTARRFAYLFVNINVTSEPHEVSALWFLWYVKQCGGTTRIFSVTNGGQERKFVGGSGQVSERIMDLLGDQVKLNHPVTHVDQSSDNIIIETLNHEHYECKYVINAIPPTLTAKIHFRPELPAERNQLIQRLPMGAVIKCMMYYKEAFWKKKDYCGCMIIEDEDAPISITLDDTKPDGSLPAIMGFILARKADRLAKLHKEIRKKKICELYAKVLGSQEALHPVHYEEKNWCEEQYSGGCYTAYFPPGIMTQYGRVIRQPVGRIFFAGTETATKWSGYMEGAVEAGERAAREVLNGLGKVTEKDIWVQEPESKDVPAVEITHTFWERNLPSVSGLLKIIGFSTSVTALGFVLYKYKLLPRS

[3] = target: T2, Amine oxidase [flavin-containing] B (Homo sapiens, UniProt P27338); assay: Inhibition of human recombinant MAOB assessed as 4-hydroxyquinoline formation by fluorimetry
T2 sequence (P27338 whole entry): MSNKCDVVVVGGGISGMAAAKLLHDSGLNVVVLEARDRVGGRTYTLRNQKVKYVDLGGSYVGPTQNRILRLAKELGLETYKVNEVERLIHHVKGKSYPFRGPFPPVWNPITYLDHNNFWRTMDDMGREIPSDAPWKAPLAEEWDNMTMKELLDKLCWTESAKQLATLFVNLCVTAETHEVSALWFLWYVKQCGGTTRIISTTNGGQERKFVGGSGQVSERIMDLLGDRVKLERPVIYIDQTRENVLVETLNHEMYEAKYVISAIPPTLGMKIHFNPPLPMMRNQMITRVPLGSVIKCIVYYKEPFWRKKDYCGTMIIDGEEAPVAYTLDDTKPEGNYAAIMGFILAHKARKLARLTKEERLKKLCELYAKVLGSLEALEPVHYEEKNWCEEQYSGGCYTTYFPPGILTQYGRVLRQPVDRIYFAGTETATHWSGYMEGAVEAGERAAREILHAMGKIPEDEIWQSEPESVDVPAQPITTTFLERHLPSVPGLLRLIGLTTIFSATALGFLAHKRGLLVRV

Homo sapiens = species: Homo sapiens; assay: Selectivity for human recombinant MAOA over human recombinant MAOB
Papio hamadryas [4] = species: Papio hamadryas; assay: Reversible inhibition of MAOB in baboon liver mitochondria at 0.28 uM assessed as MMDP+ production by spectrophotometry
[5] = target: T2, Amine oxidase [flavin-containing] B; assay: Reversible inhibition of human recombinant MAOB at 0.23 uM assessed as 4-hydroxyquinoline formation by fluorimetry
[6] = target: T1, Amine oxidase [flavin-containing] A; assay: Reversible inhibition of human recombinant MAOA at 1.31 uM assessed as 4-hydroxyquinoline formation by fluorimetry
[7] = target: T2, Amine oxidase [flavin-containing] B; assay: Competitive inhibition of human recombinant MAOB by Lineweaver-Burke plot
Papio hamadryas [8] = species: Papio hamadryas; assay: Competitive inhibition of MAOB in baboon liver mitochondria by Lineweaver-Burke plot
[9] = target: T1, Amine oxidase [flavin-containing] A; assay: Reversible inhibition of human recombinant MAOA assessed as 4-hydroxyquinoline formation by fluorimetry
[10] = target: T1, Amine oxidase [flavin-containing] A; assay: Competitive inhibition of human recombinant MAOA by Lineweaver-Burke plot

SMILES	IC50 [1]	Ki [1]	IC50 [2]	Ki [2]	IC50 [3]	Ki [3]	Ratio Ki (Homo sapiens)	inhibition (Papio hamadryas [4])	inhibition (INH) [5]	inhibition (INH) [6]	inhibition (INH) [7]	inhibition (Papio hamadryas [8])	inhibition (INH) [9]	inhibition (INH) [10]
Cn1c(=O)c2c(nc(OCc3cccc(Cl)c3)n2C)n(C)c1=O	120 nM	69 nM	107 nM	36 nM	666 nM	230 nM	0.16	Active	Active	Active	–	–	–	–
COc1cccc(COc2nc3c(c(=O)n(C)c(=O)n3C)n2C)c1	1590 nM	920 nM	1010 nM	340 nM	3150 nM	1100 nM	0.31	–	–	–	–	–	–	–
Cn1c(=O)c2c(nc(OCc3cccc(Br)c3)n2C)n(C)c1=O	113 nM	65 nM	68 nM	23 nM	941 nM	330 nM	0.069	–	–	–	–	–	–	–
Cn1c(=O)c2c(nc(OCc3ccccc3)n2C)n(C)c1=O	2490 nM	1440 nM	1770 nM	590 nM	1240 nM	430 nM	1.37	–	–	–	–	–	–	–

Other lines, results leading:

IC50 [1]	Ki [1]	IC50 [2]	Ki [2]	IC50 [3]	Ki [3]	Ratio Ki (Homo sapiens)	inhibition (Papio hamadryas [4])	inhibition (INH) [5]	inhibition (INH) [6]	inhibition (INH) [7]	inhibition (Papio hamadryas [8])	inhibition (INH) [9]	inhibition (INH) [10]	SMILES
112 nM	65 nM	152 nM	51 nM	3720 nM	1300 nM	0.039	–	–	–	Active	Active	Active	Active	Cn1c(=O)c2c(nc(OCc3cccc(C(F)(F)F)c3)n2C)n(C)c1=O
534 nM	310 nM	542 nM	180 nM	1070 nM	370 nM	0.49	–	–	–	–	–	–	–	Cn1c(=O)c2c(nc(OCc3cccc(F)c3)n2C)n(C)c1=O
698 nM	400 nM	546 nM	180 nM	397 nM	140 nM	1.29	–	–	–	–	–	–	–	Cc1cccc(COc2nc3c(c(=O)n(C)c(=O)n3C)n2C)c1
